Data set [1] concerns the target T1, CYP2C9 (Homo sapiens, UniProt P11712).
T1 construct: purchased Gentest Corporation P258
As to the kind of experiment: Cytochrome P450 enzyme assay, CYP2C9 (Gentest Supersomes, fluorometric). The format is in vitro ADME. To be noted: human recombinant enzyme, mean IC50; read-out: CP450 2C9 IC50. As for the experimental part: (§1) In vitro assays to determine the concentration of the compounds provided herein required for 50% inhibition of substrate metabolism (IC50) by different human cytochrome P450 enzymes (2C9, 2C19, 3A4) were conducted using human recombinant cytochrome P450 enzyme assays, developed by Gentest Corporation. These assays contain Gentest Supersomes™ (specific human cytochrome P450 enzyme, co-expressed with P450 reductase and cytochrome b5), a NADPH regenerating system, substrate and a concentration range of the compounds provided herein. The fluorescent product was the measured end point for these assays. IC50s were calculated using a four-parameter logistic equation with the bottom fixed at 0% inhibition and the top fixed at 100% inhibition. (Values are the mean IC50±SD when n is greater than 1.)
(§2) Assays were conducted in 96-well microtiter plates using fluorometric assays developed by Gentest Corporation. The 12 wells in each row were used for one inhibition curve. Wells 1 to 8 contained serial 1:3 dilutions of the test compound. Wells 9 to 12 contained no inhibitor and wells 11 and 12 were blanks for background fluorescence (stop solution was added before the enzyme). All concentration curves were performed in duplicate. Incubations were initiated by the addition of enzyme and substrate to the pre-warmed reaction mixture. After a specific incubation period, the reaction was stopped by the addition of stop solution. Metabolite production per well was determined by measuring fluorescence using a fluorescent plate reader. Detailed experimental procedures for each enzyme are listed below. See, generally, Methodology of a high throughput method for measuring cytochrome P450 inhibition (Gentest Corporation, Technical Bulletin); Crespi, C. L.; Miller, V. P.; and Penman, B. W. (1997) Anal. Biochem. 248:188-190; and Geungerich, F. P. (1997) Adv. Pharm. 43:7-35.
A 0.2 ml/well reaction mixture containing 2 pmol CYP2C9 (P258), 1.3 mM NADP^+, 3.3 mM glucose-6-phosphate, 3.3 mM magnesium chloride, 0.4 U/ml glucose-6-phosphate dehydrogenase and 75 μM 7-methoxy-4-trifluoromethylcoumarin in […] (pH 7.4), was incubated at 37° C. for 45 minutes. Sulfaphenazole, a standard inhibitor of CYP2C9, was serially diluted from the highest concentration of 10 μM and acted as a positive control. […] After incubation, the reaction was stopped by the addition of 75 μl stop solution (80% acetonitrile/20% 0.5 M Tris base) and fluorescence/well was measured using a Spectra Fluor (Tecan) or Cytoflour 2350 (Millipore) fluorescent plate reader. […]
(§3) The “% inhibition” was calculated as follows: [formula]
(§4) Concentration versus % inhibition curves were constructed in Prism (GraphPad, Inc.). The data was analyzed using “Top & Bottom Fixed” routine. […]

For data set [2], the target named is T2, CYP2C19 (Homo sapiens, UniProt P33261).
T2 construct: purchased Gentest Corporation P259
T2 sequence (P33261 whole entry): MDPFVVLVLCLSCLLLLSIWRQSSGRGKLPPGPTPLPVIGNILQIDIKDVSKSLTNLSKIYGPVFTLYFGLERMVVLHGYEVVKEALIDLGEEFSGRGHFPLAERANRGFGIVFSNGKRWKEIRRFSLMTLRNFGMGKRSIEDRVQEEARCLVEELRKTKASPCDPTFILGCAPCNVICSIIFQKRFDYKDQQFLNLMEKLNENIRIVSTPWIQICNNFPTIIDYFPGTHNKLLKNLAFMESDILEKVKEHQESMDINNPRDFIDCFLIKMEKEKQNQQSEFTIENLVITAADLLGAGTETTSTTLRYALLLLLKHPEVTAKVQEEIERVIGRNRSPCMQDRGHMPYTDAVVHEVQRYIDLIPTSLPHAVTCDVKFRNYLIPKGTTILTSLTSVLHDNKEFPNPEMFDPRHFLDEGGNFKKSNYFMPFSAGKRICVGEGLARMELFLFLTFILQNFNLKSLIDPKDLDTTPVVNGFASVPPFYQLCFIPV
The data set is described as follows: Cytochrome P450 enzyme assay, CYP2C19 (Gentest Supersomes, fluorometric). The format is in vitro ADME. Particulars: human recombinant enzyme, mean IC50; read-out: CP450 2C19 IC50. The procedure:
as §1, §2
A 0.2 ml/well reaction mixture containing 1 pmol CYP2C19 (P259), 1.3 mM NADP^+, 3.3 mM glucose-6-phosphate, 3.3 mM magnesium chloride, 0.4 U/ml glucose-6-phosphate dehydrogenase and 25 μM 3-cyano-7-ethoxycoumarin in 50 mM potassium phosphate (pH 7.4), was incubated at 37° C. for 45 minutes. Tranylcypromine, a standard inhibitor of CYP2C19, was serially diluted from the highest concentration of 500 μM and acted as a positive control. The test compound was serially diluted from the highest concentration of 100 μM. After incubation, the reaction was stopped by the addition of 75 μl stop solution (80% acetonitrile/20% 0.5 M Tris base) and fluorescence/well was read within 1 hour using a Spectra Fluor (Tecan) fluorescent plate reader. […]
as §3, §4

Data set [3] concerns the target T3, CYP3A4 (Homo sapiens, UniProt P08684).
T3 construct: purchased Gentest Corporation P202
As to the kind of experiment: Cytochrome P450 enzyme assay, CYP3A4 (Gentest Supersomes, fluorometric). Format: in vitro ADME. To be noted: human recombinant enzyme, mean IC50; read-out: CP450 3A4 IC50. The procedure:
as §1, §2
A 0.2 ml/well reaction mixture containing 4 pmol CYP3A4 (P202), 1.3 mM NADP^+, 3.3 mM glucose-6-phosphate, 3.3 mM magnesium chloride 0.4 U/ml glucose-6-phosphate dehydrogenase, 0.01% pluronic F68, and 50 μM resorufin benzyl ether in 200 mM potassium phosphate (pH 7.4), was incubated at 37° C. for 30 minutes. Ketoconazole, a standard inhibitor of 3A4, was serially diluted from the highest concentration of 5 μM and acted as a positive control. […] After incubation, the reaction was stopped by the addition of 75 μl stop solution (80% acetonitrile/20% 0.5 M Tris base) and fluorescence/well was measured within 1 hour using a Spectra Fluor (Tecan) fluorescent plate reader. […]
as §3, §4

Data set [4] concerns rats exposed to acute hypoxia. As to the kind of experiment: Acute hypoxia model, mean pulmonary arterial pressure (MPAP) increase. To be noted: in vivo model, rat. As for the experimental part: The chamber was gassed by adding N2 to the chamber intermittently from a liquid N2 reservoir. A baralyme (Allied Health Care Products, St. Louis, Mo., USA) CO2 scrubber kept the CO2 concentration <0.2%. Relative humidity within the chamber was kept <70% with anhydrous CaSO4. Boric acid was used to keep NH3 levels within the chamber at a minimum. See, Tilton et al. (2000) Pulm. Pharm. Ther. 13:87-97. In the initial experiment, effects of a test compound were assessed on mean pulmonary arterial pressure (MPAP) of rats subsequently exposed to acute hypoxia 90 min in duration. […] All catheters were connected to polyethylene (PE 20) tubing, and were exteriorized at the back of the neck by a stainless steel wire (0.018 in. diam) tunneled subcutaneously. Two days later, MPAP was recorded through the femoral and pulmonary arterial cannulas via transducers coupled to a polygraph recorder. […] Pulmonary pressure rapidly returned toward baseline values when this group was returned to room air at the end of the experiment.

Each structure is given as a SMILES string.

The record followed here is patent US6686382B2, “Sulfonamides and derivatives thereof that modulate the activity of endothelin” (Encysive Pharmaceuticals Inc., priority 1999, dated 2004).

T1 sequence (P11712 whole entry): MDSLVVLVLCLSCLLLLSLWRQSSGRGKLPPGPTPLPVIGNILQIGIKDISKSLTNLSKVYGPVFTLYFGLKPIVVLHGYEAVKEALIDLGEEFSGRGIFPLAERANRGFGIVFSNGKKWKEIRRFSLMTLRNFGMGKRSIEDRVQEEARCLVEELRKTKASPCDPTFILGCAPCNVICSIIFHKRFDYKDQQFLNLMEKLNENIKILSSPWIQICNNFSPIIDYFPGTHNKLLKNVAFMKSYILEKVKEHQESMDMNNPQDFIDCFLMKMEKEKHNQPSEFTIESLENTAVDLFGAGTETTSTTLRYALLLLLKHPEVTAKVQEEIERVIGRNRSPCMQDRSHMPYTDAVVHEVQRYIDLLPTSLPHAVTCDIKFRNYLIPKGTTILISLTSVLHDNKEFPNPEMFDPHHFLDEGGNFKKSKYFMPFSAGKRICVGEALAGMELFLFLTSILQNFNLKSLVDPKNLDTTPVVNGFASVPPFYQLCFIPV
T3 sequence (P08684 2-503 limits assumed): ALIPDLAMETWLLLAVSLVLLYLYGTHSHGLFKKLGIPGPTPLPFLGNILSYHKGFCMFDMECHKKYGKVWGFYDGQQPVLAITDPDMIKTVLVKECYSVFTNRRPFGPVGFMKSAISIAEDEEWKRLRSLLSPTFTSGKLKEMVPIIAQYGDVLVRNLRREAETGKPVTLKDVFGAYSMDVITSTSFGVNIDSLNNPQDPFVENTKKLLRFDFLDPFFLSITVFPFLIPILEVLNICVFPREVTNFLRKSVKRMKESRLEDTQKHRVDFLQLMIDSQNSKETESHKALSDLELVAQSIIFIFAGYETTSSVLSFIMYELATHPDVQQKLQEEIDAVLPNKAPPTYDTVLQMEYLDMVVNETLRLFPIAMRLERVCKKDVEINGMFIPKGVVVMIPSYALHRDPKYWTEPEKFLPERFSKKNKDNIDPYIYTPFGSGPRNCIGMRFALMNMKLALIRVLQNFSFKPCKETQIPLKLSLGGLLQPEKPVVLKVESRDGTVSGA

For the compound `CC(=O)c1cc(C)cc(C)c1NC(=O)c1sccc1S(=O)(=O)Nc1onc(C)c1C` [Compound 7, N-(2-acetyl-4,6-dimethylphenyl)-3-{[(3,4 dimethyl-5-isoxazolyl)amino]sulfonyl}-2-thiophenecarboxamide], the 50% inhibitory concentration (IC50) (as a rule, the concentration that gives 50% inhibition) in data set [1] was 7.6 µM; in data set [2], 126 µM; in data set [3], 28 µM. The “Acute Hypoxia: dose to achieve 50% inhibition of mean pulmonary artery pressure increase” value is on record as 1 mg/kg in data set [4] (listed as N-(2-acetyl-4,6-dimethylphenyl)-3-{[(3,4 dimethyl-5-isoxazolyl)amino]-sulfonyl}-) and “approximately 1 mg/kg” in data set [4] (listed as N-(2-acetyl-4,6-dimethylphenyl)-3-{[(3,4 dimethyl-5-isoxazolyl)amino]sulfonyl}-2).

Take `Cc1cc(C)c(NC(=O)c2sccc2S(=O)(=O)Nc2onc(C)c2Cl)c(Cl)c1` [Compound 34, N-(2-chloro-4,6-dimethylphenyl)-3-{[(4-chloro-3-methyl-5-isoxazolyl)amino]sulfonyl}2-thiophenecarboxamide]: the melting point (in general, the temperature, or range, at which the solid turns liquid) was in the range of 174 to 176 °C. Besides, in data set [1], the IC50 was determined as 0.56 µM. The IC50 in data set [2] came to 4.6 µM. The IC50 in data set [3] was found to be 3.86 µM.

In turn, `Cc1cc(C)c(NC(=O)c2sccc2S(=O)(=O)Nc2onc(C)c2Cl)c(S(C)(=O)=O)c1` [Compound 42, 3-{[(4-chloro-3-methyl-5-isoxazolyl)amino]sulfonyl)-N-[2,4-dimethyl-6-(methylsulfonyl)phenyl]-2-thiophenecarboxamide] came in with a melting point of 208 to 210 °C. In addition, the IC50 in data set [1] amounted to 5.3 µM. Further, in data set [2], the IC50 came out at 6.2 µM. In data set [3], the concentration for half-maximal inhibition (IC50) worked out at 13.7 µM.

Take `Cc1cc2c(cc1CC(=O)c1sccc1S(=O)(=O)Nc1onc(C)c1Cl)OCO2` [N-(4-chloro-3-methyl-5-isoxazolyl)-2-{[3,4-(methylenedioxy)-6-methylphenyl)acetyl]-thiophene-3-sulfonamide, reference compound]: the IC50 in data set [1] turned out to be 0.03 µM; in data set [2], 0.2 µM; in data set [3], 0.09 µM. Moreover, the “Acute Hypoxia: dose to achieve 50% inhibition of mean pulmonary artery pressure increase” value in data set [4] is 2.5 mg/kg.
